Reference: US7169769B2, “17α-hydroxy-14β-steroids with hormonal effect” (Akzo Nobel N.V., priority 2001, dated 2007)

How the values were obtained:
[1] = reported in Heusser et al Helv Chim Acta Vol 22, 1949; cited from earlier work
[2] = biological target: T1, human androgen receptor (hAR) (Homo sapiens, UniProt P10275); assay: Transactivative androgen activity in CHO cells transfected with hAR and MMTV-luciferase reporter, compared with 5α-dihydrotestosterone; format: cell-based; parameters: concentration or dose not given beside the values; conditions: incubation 16 h, 37° C., compared with the activity of 5α-dihydrotestosterone
T1 construct: expressed in transfected cells; host or cells: Chinese hamster ovary cells (CHO)
T1 sequence (P10275 1-920): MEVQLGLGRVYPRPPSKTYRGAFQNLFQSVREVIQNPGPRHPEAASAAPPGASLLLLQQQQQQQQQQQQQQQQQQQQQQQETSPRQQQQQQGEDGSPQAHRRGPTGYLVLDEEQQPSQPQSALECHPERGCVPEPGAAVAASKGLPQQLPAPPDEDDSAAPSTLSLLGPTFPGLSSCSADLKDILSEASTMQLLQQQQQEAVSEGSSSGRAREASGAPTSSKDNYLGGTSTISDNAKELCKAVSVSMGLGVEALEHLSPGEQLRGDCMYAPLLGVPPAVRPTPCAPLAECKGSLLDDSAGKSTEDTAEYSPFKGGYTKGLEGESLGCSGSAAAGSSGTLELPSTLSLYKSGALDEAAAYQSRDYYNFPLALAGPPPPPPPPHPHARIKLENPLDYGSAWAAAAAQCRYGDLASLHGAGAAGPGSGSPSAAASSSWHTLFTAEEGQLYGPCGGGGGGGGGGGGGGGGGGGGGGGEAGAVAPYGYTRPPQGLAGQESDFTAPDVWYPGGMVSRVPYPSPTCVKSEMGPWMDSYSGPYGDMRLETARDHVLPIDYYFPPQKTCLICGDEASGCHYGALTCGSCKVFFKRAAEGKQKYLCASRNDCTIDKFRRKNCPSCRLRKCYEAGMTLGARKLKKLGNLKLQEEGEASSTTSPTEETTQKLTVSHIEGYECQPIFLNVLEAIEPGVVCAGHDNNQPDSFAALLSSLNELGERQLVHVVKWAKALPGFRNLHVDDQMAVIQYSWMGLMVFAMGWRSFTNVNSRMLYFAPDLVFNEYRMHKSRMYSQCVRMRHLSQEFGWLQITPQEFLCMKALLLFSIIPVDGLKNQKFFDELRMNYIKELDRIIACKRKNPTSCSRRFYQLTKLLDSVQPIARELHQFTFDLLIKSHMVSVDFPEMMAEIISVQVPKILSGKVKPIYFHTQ
Method: The transactivative androgen activity of the compounds of the invention was measured in Chinese hamster ovary cells (CHO) transfected with the human androgen receptor (hAR), in combination with a mouse mammary tumor virus (MMTV), and luciferase […] gene (incubation time 16 h, temperature 37° C.) and compared with the activity of 5α-dihydrotestosterone [Schoonen, W. G. E. J.; de Ries, R. J. H.; Joosten, J. W. H.; Mathijssen-Mommers, G. J. W.; Kloosterboer, H. J., Analyt. Biochem. 261, 222–224 (1998)].

human hepatocytes = assay: Determination of t1/2 (metabolic stability) after incubation with human hepatocytes; format: in vitro ADME; conditions: 100 nM compound, 0.5, 1 and 2 h, class relative to 17α-methyltestosterone and testosterone; for t1/2 Bioassay: supernatant analysed by androgenic activity bioassay (example 6)
Method: The half-life of a compound as a result of contact with human hepatocytes holds as a reliable indication of metabolic stability. As it is well known that the absorption of this class of steroids is high, this assay provides an in vitro model for oral activity in humans.
Hepatocytes collected from healthy young (25–45 year) male organ donors were cryo preserved in liquid nitrogen and kept there until use. They were thawed at 37° C. in a waterbath, placed immediately on ice, washed twice in one volume of cold (4° C.) incubation medium [William's medium E (without phenol red) with Glutamax I®, gentamicin 50 μg/ml, insulin 1 μM, fetal calf serum 0% (v/v)], counted and the viability checked by Trypan blue exclusion. Cells were incubated as suspensions in 96-wells (non-coated) plates at a nominal density of 3×10^4 cells/well in 300 μl medium at 37° C. with an air/CO2 mixture (95/5).
The hepatocytes were incubated with 100 nM final concentration of the compound to be tested. The incubations were stopped after 0.5, 1 and 2 h by centrifugation at 200 g. The supernatant was collected for liquid chromatography coupled to immediate mass spectroscopic analysis (LC-MS/MS analysis) and for bioassay. For the latter 10 μl was used for determination of the androgenic activity. The androgenicity was determined as described at example 6. The final compound concentration for determination of androgenic activity was 1 nmol/l.
The metabolic stability (t1/2) of the compounds of the invention were classified according to the following scheme: • (+++) metabolic stability>17α-methyltestosterone (MT) • (++) 17α-methyltestosterone>metabolic stability>80% of 17α-methyltestosterone • (+) 80% of 17α-methyltestosterone>metabolic stability>testosterone • (−) metabolic stability<testosterone Results are collected in Table 1.

Compound	androgenic activity [1]	Androgen activity (%) [2]	t1/2 LC-MS/MS (human hepatocytes; supernatant analysed by LC-MS/MS)	t1/2 Bioassay (human hepatocytes)
C[C@]12CC[C@H]3[C@@H](CCC4=CC(=O)CC[C@@]43C)[C@H]1CC[C@H]2O [17α-hydroxy-14β-testosterone]	no androgenic activity			
C[C@@H]1CC2=CC(=O)CC[C@@H]2[C@H]2CC[C@]3(C)[C@H](O)[C@@H](C)C[C@@H]3[C@@H]21 [Example 1, (7α,14β,16β,17α)-17-Hydroxy-7,16-dimethylestr-4-en-3-one]		99.0%	(+ +)	(+ +)
C[C@@H]1CC2=CC(=O)CC[C@@H]2[C@H]2CC[C@]3(C)[C@H](O)[C@H](C)C[C@@H]3[C@@H]21 [Example 2, (7α,14β,16α,17α)-17-Hydroxy-7,16-dimethylestr-4-en-3-one]		38.7%		(+ +)
C[C@@H]1CC2=CC(=O)CC[C@@H]2[C@H]2CC[C@@]3(C)[C@H](CC(C)(C)[C@H]3O)[C@@H]21 [Example 3, (7α,14β,17α)-17-hydroxy-7,16,16-trimethylestr-4-en-3-one]		78.5%		
CC[C@H]1C[C@@H]2[C@H]3[C@H](CC[C@]2(C)[C@@H]1O)[C@H]1CCC(=O)C=C1C[C@H]3C [Example 4a, (7α,14β,16β,17α)-16-Ethyl-17-hydroxy-7-methylestr-4-en-3-one]		20.0%		
CC[C@@]1(C)C[C@@H]2[C@H]3[C@H](CC[C@]2(C)[C@@H]1O)[C@H]1CCC(=O)C=C1C[C@H]3C [Example 4b, (7α,14β,16β,17α)-16-Ethyl-17-hydroxy-7,16-dimethylestr-4-en-3-one]		24.0%		
C[C@@H]1CC2=CC(=O)CC[C@@H]2[C@H]2CC[C@]3(C)[C@H](O)CC[C@@H]3[C@@H]21 [Ref. comp. 2, (7α,14β,17α)-17-Hydroxy-7-methylestr-4-en-3-one, reference compound]		60.5%		
